Patent publication US20160108414A1, “GROWTH-RELATED ENOX PROTEINS FROM PLANTS WITH YIELD ENHANCEMENT POTENTIAL, SEQUENCES AND METHODS” (Mor-NuCo Enterprises, Inc., priority 2013, published 2016)
Several values for one entry are separate records, joined by “and”; a condition that tells them apart may be missing. Equal values may be shown once.

Key:
[1] = tested on: recombinant Arabidopsis ENOX1; assay: NADH oxidase activity of IEF-purified recombinant Arabidopsis ENOX1; type: biochemical
Protocol: (§1) Cells were centrifuged at 5,000 g for 6 min. Pellets were then resuspended in 20 mM Tris-HCl, pH 8.0, containing 0.5 mM PMSF, 1 mM benzamidine and 1 mM 6-aminocaproic and lysed by three passages through a French pressure cell (SLM Aminco) at 20,000 psi. Expression of the recombinant Arabidopsis ENOX1 of about 14 kDa was confirmed by SDS-PAGE with silver staining. Transformed cells were stored at −80° C. in a standard glycerol stock solution. The Arabidopsis ENOX1 proteins were further purified on Criterion IEF gels (Bio-Rad, Hercules, Calif.). The IEF gel was cut into seven equal segments. The pH represented by each slice was based on IEF standards (Bio-Rad). The slices were soaked in 15 mM Tris-Mes buffer, pH 7, at 4° C. for overnight with shaking. The gel-free extracts were assayed for ENOX1 activity.
(§2) Oxidation of NADH was determined spectrophotometrically from the disappearance of NADH measured at 340 nm in a reaction mixture containing 25 mM Tris-MES (pH 7.2), 100 μM GSH, 1 mM KCN to inhibit mitochondrial oxidase activity, 150 μM NADH and the enzyme at 37° C. with temperature control (±0.5° C.) and stirring. Prior to assay, 1 μM reduced glutathione was added to reduce the protein in the presence of substrate. After 10 min, 0.03% hydrogen peroxide was added to reoxidize the protein under renaturing conditions and in the presence of substrate to start the reaction. Activities were measured using paired Hitachi U3210 or paired SLM Aminco 2000 spectrophotometers both with continuous recording. Assays were run for 1 min and were repeated on the same sample at intervals of 1.5 min for the times indicated. An extinction coefficient of 6.22 cm^−1 mM^−1 was used to determine specific activity.
IEF purified ENOX1 was concentrated to 0.7 mg/ml by using a Centricon concentrator (Millipore Corporation, Danvers, Mass.) fitted with a 10,000 nominal molecular weight limit ultracel YM membrane. Samples (50 μl) were combined with 1 μl of trifluoroacetic acid (TFA) in the presence or absence of 15 μl 10 mM bathocuproine. After 2 h of incubation at room temperature, the samples were dialyzed (Spectra/Pro Dialysis membrane, molecular weight cut-off 6-8,000, Spectrum Laboratories (Rancho Dominguez, Calif.) against 20 mM Tris-HCl, pH 8, at 4° C. overnight.

recombinant ABP-20 = target: T1, recombinant ABP-20 (Prunus persica, UniProt O04011, DUP151-151); assay: NADH oxidase activity of IEF-purified recombinant ABP-20 (dNOX); type: biochemical
T1 construct: made in house; host or cells: E. coli BL21 (DE3), pET11b
T1 sequence (O04011 other isoform, or with tags, fused parts or gaps DUP151-151): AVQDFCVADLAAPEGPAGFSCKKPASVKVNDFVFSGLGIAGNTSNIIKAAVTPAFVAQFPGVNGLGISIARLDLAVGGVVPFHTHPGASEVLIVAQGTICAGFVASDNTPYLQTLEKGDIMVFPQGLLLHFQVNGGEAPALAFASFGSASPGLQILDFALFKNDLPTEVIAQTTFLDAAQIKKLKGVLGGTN
Protocol: as §2
as §1, with “recombinant ABP-20” for “recombinant Arabidopsis ENOX1”, “about 20” for “about 14”, “The recombinant” for “The Arabidopsis ENOX1”, “for ENOX activities as follows: […]” for “for ENOX1 activity.”

dNOX of soybean = assay: Stimulation of NOX activity of soybean plasma membranes (dNOX of soybean); type: biochemical; details: 1 μM
recombinant human ENOX2 = target: T2, recombinant human ENOX2 (Homo sapiens, UniProt Q16206); assay: Inhibition of recombinant human ENOX2 assayed in parallel; type: biochemical; details: read-out: inhibition of recombinant human ENOX2
T2 sequence (Q16206 1-610): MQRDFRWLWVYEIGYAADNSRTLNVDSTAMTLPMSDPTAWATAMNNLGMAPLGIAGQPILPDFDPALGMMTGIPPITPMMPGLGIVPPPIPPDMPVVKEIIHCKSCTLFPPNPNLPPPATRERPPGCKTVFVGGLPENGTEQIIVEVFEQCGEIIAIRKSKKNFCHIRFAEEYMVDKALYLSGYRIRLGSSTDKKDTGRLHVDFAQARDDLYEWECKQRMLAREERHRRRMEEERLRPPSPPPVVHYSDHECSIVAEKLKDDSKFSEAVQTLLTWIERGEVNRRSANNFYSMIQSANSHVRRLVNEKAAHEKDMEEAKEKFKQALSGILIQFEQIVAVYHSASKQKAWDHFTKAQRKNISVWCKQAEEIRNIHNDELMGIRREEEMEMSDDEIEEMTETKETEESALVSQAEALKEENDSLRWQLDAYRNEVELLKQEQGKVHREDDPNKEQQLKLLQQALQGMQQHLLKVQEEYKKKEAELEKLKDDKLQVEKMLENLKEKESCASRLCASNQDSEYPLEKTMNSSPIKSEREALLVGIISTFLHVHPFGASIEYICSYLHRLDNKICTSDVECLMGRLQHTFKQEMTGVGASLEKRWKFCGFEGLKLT
From the text: Simalikalactone D is a general ENOX1 inhibitor.

soybean plants = assay: TR-III spray, greenhouse soybeans from untreated seed, epicotyl enlargement; type: in vivo
From the text: FIG. 20. As in FIG. 19, except plants were from untreated seed and sprayed with different rates of TR-III.

plasma membrane ENOX1 = assay: Plasma membrane ENOX1 activity with added cysteine; type: biochemical, soybean; details: for ENOX1: +100 μM cysteine
soybean shoots = assay: Shoot growth of excised soybean shoots in TR-III solutions; type: in vivo; details: narrow range, FIG. 18
From the text: FIG. 18. As in FIG. 17, except untreated seeds were germinated and excised shoots were transferred to TR-III solutions of different concentrations prepared in water.

375 NR soybeans = assay: TR-III spray, greenhouse soybeans, plant height above cotyledons; type: in vivo, soybean; design: Plant height above cotyledons: unit not given beside the values; details: for Plant height above cotyledons: single experiments, 10 days after spraying
soybeans = assay: Soybean field experiment with TR-III foliar spray, standability; type: in vivo; details: 0.01 lb/A foliar spray; No TR-III plants severely lodged
From the text: FIG. 21. Pods per plant of soybeans in a field experiment comparing no TR-III (solid symbols) with 0.01 lb/A TR-III (open symbols, dashed lines) as a foliar spray applied July 3. FIG. 23. Standability of soybeans from the field experiment of FIG. 21. No TR-III plants (left) were severely lodged.

dNOX (ABP-20) [2] = assay: NADH oxidation of dNOX (ABP-20) site-directed mutants; type: biochemical
Protocol: as §2
(§3) Amino acids indicated were replaced by alanines by site-directed mutagenesis according to Braman et al. (Braman, J., Papworth, C. and Greener, A. 1996. Methods Mol. Biol. 57:32-44). Numbered amino acids and nucleotide positions of splice variant products refer to numbers assigned to amino acids of the full length transcript

dNOX (ABP-20) [3] = target: T3, dNOX (ABP-20) (Prunus persica, UniProt O04011, C44A/DUP151-151); assay: as above; type: biochemical; details: versus wild type
T3 construct: made in house; host or cells: E. coli BL21 (DE3), pET11b (as for the unmodified protein; not repeated for the mutants)
T3 sequence (O04011 other isoform, or with tags, fused parts or gaps C44A/DUP151-151): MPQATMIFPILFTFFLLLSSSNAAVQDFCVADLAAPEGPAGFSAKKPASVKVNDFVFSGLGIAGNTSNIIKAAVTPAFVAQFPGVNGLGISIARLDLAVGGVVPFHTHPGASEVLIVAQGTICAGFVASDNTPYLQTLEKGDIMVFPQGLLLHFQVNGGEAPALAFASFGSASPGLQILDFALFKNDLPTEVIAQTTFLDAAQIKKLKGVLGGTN
Protocol: as §2, §3

dNOX (ABP-20) [4] = assay: DTDP (protein disulfide-thiol) interchange of dNOX (ABP-20) site-directed mutants; type: biochemical
Protocol: (§4) Protein disulfide-thiol interchange was determined spectrophotometrically from the increase in absorbance at 340 nm resulting from the cleavage of dithiodipyridine (DTDP (Morré, D. J., Gomez-Rey, M. L., Schramke, C., Em, O., Lawler, J., Hobeck, J. and Morré, D. M. 1999. Mol. Cell. Bochem. 200: 7-13). DTDP cleavage was buffered (50 mM Tris-MES, pH 7). The assay was preincubated (1 h at room temperature) with 0.5 μmoles 2,2′-dithiodipyridine (DTDP) in 5 μl of DMSO to react with endogenous reductants present with the plasma membranes. After 10 min, a further […] DTDP were added in 35 μl DMSO to start the reaction. The final reaction volume was […]. The reaction was monitored from the increase in absorbance at 340 nm. Specific activities were calculated using a milimolar absorption coefficient of 6.21.
as §3

dNOX (ABP-20) [5] = target: T3, dNOX (ABP-20); assay: as above; type: biochemical; details: versus wild type
Protocol: as §4, §3

Molecule: O=C(O)COc1ccc(Cl)cc1Cl [2,4-dichlorophenoxyacetic acid]
- NADH oxidase activity ([1]; addition 1 μM, average of 3 determinations ± SD, None = 2.7 ± 0.4): 3.7 ± 0.1 µmol/min/mg
- Effect on ENOX1 activity eluted from the IEF gel ([1]; concentrations of Table 5): without effect
- average specific activity (recombinant ABP-20; 1 μM auxin, IEF-purified fractions): ~0.6±0.2 μmoles/min/mg protein
- NADH oxidase activity (recombinant ABP-20; addition 1 μM, average of 3 determinations ± SD, None = 0.1 ± 0.08): 0.8 ± 0.2 µmol/min/mg
- optimum concentration for activation (recombinant ABP-20; higher concentration less effective): about 1 μM
- stimulation of NOX activity of soybean plasma membranes (dNOX) (dNOX of soybean): approximately two-fold

Molecule: Oc1ccc(C2=Cc3ccc(O)cc3OC2)cc1 [Phenoxodiol]
- inhibition at 10 µM (recombinant human ENOX2): > 90%

Molecule: N[C@@H](CS)C(=O)O [TR-III, cysteine]
- Epicotyl enlargement (soybean plants; spray 0.001 or 0.1 lb/A): little or no effect
- Epicotyl enlargement (soybean plants; spray 0.01 lb/A): Epicotyl enlargement was observed
- response of plasma membrane ENOX1 activity to added cysteine (plasma membrane ENOX1; 100 μM, both ST-109-2-4 and Williams 82): about 12%
- ENOX1 (plasma membrane ENOX1; plasma membranes of Williams 82 ISU, −cysteine 0.060 ± 0.003): 0.072 ± 0.003 μmoles/min/mg protein
- ENOX1 (plasma membrane ENOX1; plasma membranes of transgenic ST-109-2-4, −cysteine 0.110 ± 0.004): 0.123 ± 0.005 μmoles/min/mg protein
- Stimulation of NADH oxidation ([1]; recombinant protein expressed in bacteria, FIG. 14): specific for maximum (3)
- concentration range stimulating shoot growth (soybean shoots): around 10^−7 M
- Plant height above cotyledons, Ave + MAD (375 NR soybeans; spray 0.001 lb/A, 0 lb/A: 13.6 ± 0.3): 14.7 ± 0.1
- Plant height above cotyledons (375 NR soybeans; spray 0.001 lb/A, 0 lb/A: 13.3, 13.9): 14.8 and 14.6
- Plant height above cotyledons, Ave + MAD (375 NR soybeans; spray 0.01 lb/A): 14.4 ± 0.1
- Plant height above cotyledons (375 NR soybeans; spray 0.01 lb/A): 14.3 and 14.5
- Plant height above cotyledons, Ave + MAD (375 NR soybeans; spray 0.1 lb/A): 15.2 ± 0.7
- Plant height above cotyledons (375 NR soybeans; spray 0.1 lb/A): 14.4 and 15.9
- Standability (lodging) (soybeans): did not lodge

B1: C44A: ABP-20 with C44 replaced by alanine (CKK motif) (protein, UniProt O04011 24-214, looked up, variant C44A)
Auxin-binding protein ABP20: AVQDFCVADLAAPEGPAGFSAKKPASVKVNDFVFSGLGIAGNTSNIIKAAVTPAFVAQFPGVNGLGISIARLDLAVGGVVPFHTHPGASEVLIVAQGTICAGFVASDNTPYLQTLEKGDIMVFPQGLLHFQVNGGEAPALAFASFGSASPGLQILDFALFKNDLPTEVIAQTTFLDAAQIKKLKGVLGGTN
- NADH Oxidation (dNOX (ABP-20) [2]): 0.15 ± 0.05 μmoles/min/mg protein
- reduction of NADH oxidation activity (dNOX (ABP-20) [3]): 81%
- DTDP Interchange (dNOX (ABP-20) [4]): 0.02 ± 0.01 μmoles/min/mg protein
- reduction of protein disulfide-dithiol interchange activity (dNOX (ABP-20) [5]): 81%
